The source made the active and inactive calls. The calls are words filed in the database; no cut-off is given here.

For one experiment, the system named is RAW264.7. As to the kind of experiment: Antiinflammatory activity in mouse RAW264.7 cells assessed as inhibition of LPS-induced TNFalpha production at 100 uM after 24 hrs by ELISA relative to control. It counts as functional, cell-based. For orientation: ELISA stands for enzyme-linked immunosorbent assay.
Regarding `CC(/C=C/[C@@]1(C)[C@H](C)CCC(=O)[C@@H]1C)=C\Cc1c(O)c(Cl)c(C)c(C=O)c1O`, the outcome was Active.

For the molecule `C/C(=C\Cc1c(O)c(Cl)c(C)c(C=O)c1O)CC/C=C(\C)[C@@H]1CC(=O)C(C)(C)O1`, the result was Active.

In a further experiment the test system is RAW264.7. The experiment is described as follows: Antiinflammatory activity in mouse RAW264.7 cells assessed as inhibition of LPS-induced nitric oxide production at 100 uM after 24 hrs by Griess reagent method relative to control. The format is functional, cell-based.
With `CC(/C=C/[C@@]1(C)[C@H](C)CCC(=O)[C@@H]1C)=C\Cc1c(O)c(Cl)c(C)c(C=O)c1O`, the outcome was Active.

`C/C(=C\Cc1c(O)cc(C)c(C=O)c1O)CC[C@@]1(C)[C@H](C)CCC(=O)[C@@H]1C`: the outcome was Active.

For `C/C(=C\Cc1c(O)c(Cl)c(C)c(C=O)c1O)CC[C@@]1(C)[C@H](C)CCC(=O)[C@@H]1C`, the result was Active.

Turning to `C/C(=C\Cc1c(O)c(Cl)c(C)c(C=O)c1O)CC/C=C(\C)[C@@H]1CC(=O)C(C)(C)O1`, the result was Active.
